Experimental findings from patent US9718820B2, “Substituted aza-bicyclic imidazole derivatives useful TRPM8 receptor modulators” (Janssen Pharmaceutica NV, priority 2010, dated 2017) are described below.

The target in one experiment is canine TRPM8 (Canis lupus familiaris, UniProt Q1A7N1). As to the kind of experiment: In vitro canine TRPM8 functional assay (icilin-induced intracellular Ca2+ increase, FLIPR/FDSS). The experiment is classed as cell-based. The settings on record: 0.2 μM compound; icilin response in HEK293 cells stably expressing canine TRPM8. On the procedure: The functional activity of representative compounds of the formula (I) of the present invention was quantified by measuring changes in intracellular calcium concentration using a Ca^2+-sensitive fluorescent dye. The changes in fluorescent signal were monitored by a fluorescence plate reader, either a FLIPR™ (Molecular Devices) or FDSS (Hamamatsu).
HEK293 cells stably expressing canine TRPM8 were routinely grown as monolayers in Dulbecco's minimum essential medium supplemented with 10% FBS, 2 mM L-glutamine, 100 units/mL penicillin, 100 ug/mL streptomycin and 400 μg/mL G418. Cells were maintained in 5% CO2 at 37° C. […] Cells were treated with compounds of the formula (I) at varying concentrations and intracellular Ca^2+ was measured for 5 min prior to the addition of icilin to each well to achieve a final concentration that produces an approximately 80% maximal response.
Maximal fluorescence intensity (FI) achieved upon addition of icilin was exported from the FLIPR™ or FDSS software and further analyzed using GraphPad Prism 3.02 (Graph Pad Software Inc., CA, U.S.A.). […] Finally, the EC50 and IC50 values were calculated with the best-fit curve determined by GraphPad Prism

Another experiment concerns the target TRPM8 channel (Rattus norvegicus (Rat), UniProt Q8R455). As to the kind of experiment: Inhibition of icilin-induced "wet-dog" shakes in rats. In kind it is in vivo. To be noted: 10 mg/kg p.o. in 10% HP-β-CD, icilin 3.0 mg/kg i.p. On the procedure:
Similar shaking or jumping behavior was also evident in mice, rabbits, cats, dogs and monkeys. In humans, icilin produced a sensation of coolness on contact with mucous membranes, cold prickling when 0.1 mg was dropped on the tongue and coldness in the mouth, pharynx and chest lasting 30-60 min when 5-10 mg was ingested orally (WEI, E. T., et al., “AG-3-5: a chemical producing sensations of cold”, J Pharm Pharmacol., 1983, pp 110-112, Vol. 35). The inhibition or reversal of icilin-induced shaking behaviors in rodents provides evidence for the engagement and functional blockade of the TRPM8 channel and thereby for the utility of TRPM8 antagonists in treating or preventing a disease or condition in a mammal in which the disease or condition is affected by the modulation of TRPM8 receptors.
Male Sprague Dawley rats (220-450 g, Charles River Labs, n=6-9/treatment) were used to evaluate the ability of test compounds to block icilin-induced “wet-dog” shakes (WDS). […] Icilin was then administered in 10% solutol/H2O, at 3.0 mg/kg, i.p., and spontaneous “wet-dog” shakes were counted 10 min following the icilin injection over a 10-min period.

Chain of canine TRPM8 (Q1A7N1 1-1104): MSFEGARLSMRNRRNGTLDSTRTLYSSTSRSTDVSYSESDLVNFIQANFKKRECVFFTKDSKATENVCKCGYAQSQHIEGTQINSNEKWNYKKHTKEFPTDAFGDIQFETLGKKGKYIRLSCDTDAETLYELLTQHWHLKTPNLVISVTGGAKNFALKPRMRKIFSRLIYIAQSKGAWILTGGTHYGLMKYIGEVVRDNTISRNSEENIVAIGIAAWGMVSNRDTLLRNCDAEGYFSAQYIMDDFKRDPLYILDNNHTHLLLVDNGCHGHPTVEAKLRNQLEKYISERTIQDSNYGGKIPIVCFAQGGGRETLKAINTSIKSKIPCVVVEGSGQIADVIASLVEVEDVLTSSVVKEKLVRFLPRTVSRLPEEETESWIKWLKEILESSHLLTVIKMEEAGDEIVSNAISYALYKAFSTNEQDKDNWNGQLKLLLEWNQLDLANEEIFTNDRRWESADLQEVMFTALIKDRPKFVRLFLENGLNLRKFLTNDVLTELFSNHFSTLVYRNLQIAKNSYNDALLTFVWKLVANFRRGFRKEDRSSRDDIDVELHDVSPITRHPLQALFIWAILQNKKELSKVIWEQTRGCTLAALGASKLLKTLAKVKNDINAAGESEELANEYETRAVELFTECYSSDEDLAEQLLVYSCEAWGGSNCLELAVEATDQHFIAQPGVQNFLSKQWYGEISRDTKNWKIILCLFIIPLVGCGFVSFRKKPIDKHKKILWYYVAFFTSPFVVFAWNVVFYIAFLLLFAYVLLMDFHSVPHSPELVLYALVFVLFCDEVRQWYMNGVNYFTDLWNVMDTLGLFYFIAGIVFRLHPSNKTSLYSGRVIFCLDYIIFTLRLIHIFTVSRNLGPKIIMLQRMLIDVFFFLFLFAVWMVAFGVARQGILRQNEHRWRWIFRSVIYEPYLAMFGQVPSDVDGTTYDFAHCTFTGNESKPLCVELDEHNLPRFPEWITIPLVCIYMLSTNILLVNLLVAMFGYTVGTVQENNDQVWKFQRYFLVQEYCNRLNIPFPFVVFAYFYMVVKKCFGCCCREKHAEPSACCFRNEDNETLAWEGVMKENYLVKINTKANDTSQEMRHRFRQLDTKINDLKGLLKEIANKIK
Chain of TRPM8 channel (Q8R455 whole entry): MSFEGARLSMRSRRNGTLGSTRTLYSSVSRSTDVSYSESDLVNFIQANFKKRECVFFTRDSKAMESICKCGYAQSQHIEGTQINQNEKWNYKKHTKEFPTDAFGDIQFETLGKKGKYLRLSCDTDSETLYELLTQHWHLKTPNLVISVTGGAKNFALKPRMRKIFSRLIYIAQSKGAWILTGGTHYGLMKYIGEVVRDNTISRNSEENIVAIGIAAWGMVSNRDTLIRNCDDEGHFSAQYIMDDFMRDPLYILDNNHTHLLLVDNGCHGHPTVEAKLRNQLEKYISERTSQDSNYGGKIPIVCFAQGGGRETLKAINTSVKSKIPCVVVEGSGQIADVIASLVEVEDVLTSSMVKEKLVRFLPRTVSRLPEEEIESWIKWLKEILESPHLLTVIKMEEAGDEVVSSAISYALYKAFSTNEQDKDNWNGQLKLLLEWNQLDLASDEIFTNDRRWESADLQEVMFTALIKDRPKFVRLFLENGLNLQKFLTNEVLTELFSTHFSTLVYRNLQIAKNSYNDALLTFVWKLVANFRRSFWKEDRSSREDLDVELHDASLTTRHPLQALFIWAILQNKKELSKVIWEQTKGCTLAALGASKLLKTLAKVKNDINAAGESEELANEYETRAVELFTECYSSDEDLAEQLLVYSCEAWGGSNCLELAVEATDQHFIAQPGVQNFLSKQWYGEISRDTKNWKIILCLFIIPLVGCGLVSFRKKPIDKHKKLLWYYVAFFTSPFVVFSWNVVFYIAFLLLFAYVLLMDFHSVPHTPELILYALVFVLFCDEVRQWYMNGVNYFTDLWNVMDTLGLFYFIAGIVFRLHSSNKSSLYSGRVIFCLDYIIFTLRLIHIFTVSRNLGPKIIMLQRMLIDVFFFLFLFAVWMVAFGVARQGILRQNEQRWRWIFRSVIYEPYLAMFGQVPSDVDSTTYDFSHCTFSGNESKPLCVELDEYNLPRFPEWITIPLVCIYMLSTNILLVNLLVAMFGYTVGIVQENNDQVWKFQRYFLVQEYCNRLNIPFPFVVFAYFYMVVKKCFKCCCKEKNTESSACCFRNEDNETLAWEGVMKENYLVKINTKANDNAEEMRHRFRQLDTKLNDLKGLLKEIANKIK

`Cn1nc(C(C)(C)C)c(Cl)c1-c1nc2nc(-c3ccccc3C(F)(F)F)cc(C(F)(F)F)c2[nH]1` [Compound 1]: the “% Inh @ 0.2 μM” value on canine TRPM8 is 99%.

As to `COc1nc(-c2ccccc2Cl)cc2nc(-c3c(C#N)c(C(C)(C)C)nn3C)[nH]c12.CS(=O)(=O)O` [Compound 17, 3-tert-Butyl-5-[6-(2-chloro-phenyl)-4-methoxy-3H-imidazo[4,5-c]pyridine-2-yl]-1-methyl-1H-pyrazole-4-carbonitrile methanesulfonic acid salt], the “Icilin % Inhibition @ 1.5 h, 10 mg/kg” value on TRPM8 channel is on record as 38%.

Regarding `Cn1nc(C(C)(C)C)c(Cl)c1-c1nc2nc(-c3ccccc3Cl)cnc2[nH]1` [Compound 110], the “% Inh @ 0.2 μM” value on canine TRPM8 was 99%.
